Test results published in PubChem BioAssay AID330 (DTP/NCI, 2004).
Values joined by “and” are separate entries in the source; they are usually repeats but may differ in a detail not shown here. Equal entries are not always repeated. Inconclusive results and toxic doses are left out.

Tested on: P388 leukemia ip, CD2F1 mice, survival T/C
Test: NCI In Vivo Anticancer Drug Screen. Data for tumor model P388 Leukemia (intraperitoneal) in CD2F1 (CDF1) mice
Details: endpoint: median survival time, higher = longer survival
Procedure, shortened: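 Mice carrying the transplanted tumor received test compound or vehicle. Survival was recorded in each group, and the value is the treated-group measurement divided by that of the vehicle-treated control group.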

[1] = dose: 60.0 mg/kg/injection, schedule: Q01DX005 (ip), vehicle: saline with Tween-80
[2] = dose: 120.0 mg/kg/injection, schedule: Q01DX005 (ip), vehicle: saline with Tween-80
[3] = dose: 240.0 mg/kg/injection, schedule: Q01DX005 (ip), vehicle: saline with Tween-80
[4] = dose: 25.0 mg/kg/injection, schedule: Q01DX009 (ip), vehicle: saline with Tween-80
[5] = dose: 50.0 mg/kg/injection, schedule: Q01DX009 (ip), vehicle: saline with Tween-80
[6] = dose: 100.0 mg/kg/injection, schedule: Q01DX009 (ip), vehicle: saline with Tween-80
[7] = dose: 200.0 mg/kg/injection, schedule: Q01DX009 (ip), vehicle: saline with Tween-80
[8] = dose: 50.0 mg/kg/injection, schedule: Q01DX009 (ip), vehicle: Klucel (hydroxypropylcellulose) (HPC)
[9] = dose: 100.0 mg/kg/injection, schedule: Q01DX009 (ip), vehicle: Klucel (hydroxypropylcellulose) (HPC)
[10] = dose: 200.0 mg/kg/injection, schedule: Q01DX009 (ip), vehicle: Klucel (hydroxypropylcellulose) (HPC)
[11] = dose: 50.0 mg/kg/injection, schedule: Q01DX009 (ip), vehicle: saline
[12] = dose: 100.0 mg/kg/injection, schedule: Q01DX009 (ip), vehicle: saline
[13] = dose: 200.0 mg/kg/injection, schedule: Q01DX009 (ip), vehicle: saline
[14] = dose: 100.0 mg/kg/injection, schedule: Q04DX003 (ip), vehicle: saline with Tween-80
[15] = dose: 200.0 mg/kg/injection, schedule: Q04DX003 (ip), vehicle: saline with Tween-80
[16] = dose: 100.0 mg/kg/injection, schedule: Q01DX001 (ip), vehicle: saline with Tween-80
[17] = dose: 200.0 mg/kg/injection, schedule: Q01DX001 (ip), vehicle: saline with Tween-80

With `CC(C)(C)OOC(=O)c1ccc(Cl)cc1` the T/C (dose: 100.0 mg/kg/injection, schedule: Q04DX002 (ip), vehicle: saline with Tween-80) was 96 % of control, the T/C (dose: 200.0 mg/kg/injection, schedule: Q04DX002 (ip), vehicle: saline with Tween-80) was 95 % of control and the T/C (dose: 400.0 mg/kg/injection, schedule: Q04DX002 (ip), vehicle: saline with Tween-80) was 101 % of control.
With `OCc1sccc1-n1cccc1` the T/C [1] was 104 % of control, the T/C [2] was 104 % of control and the T/C [3] was 104 % of control.
In the case of `O=C1C2=Nc3ccccc3C(O)N2c2ccccc21` (stereo not given), the T/C (dose: 12.5 mg/kg/injection, schedule: Q01DX009 (ip), vehicle: saline with Tween-80) was 88 % of control, the T/C [4] was 89 % of control and the T/C [5] was 90 % of control and 97 % of control. The T/C [6] was 93 % of control and the T/C [7] was 94 % of control.
`CNS(=O)(=O)c1c([N+](=O)[O-])ncn1C` was tested, and the T/C (dose: 12.5 mg/kg/injection, schedule: Q01DX009 (ip), vehicle: Klucel (hydroxypropylcellulose) (HPC)) was 109 % of control, the T/C (dose: 25.0 mg/kg/injection, schedule: Q01DX009 (ip), vehicle: Klucel (hydroxypropylcellulose) (HPC)) was 109 % of control and 115 % of control and the T/C [8] was 113 % of control. For the same compound, the T/C [9] was 123 % of control.
With `C=CCNC(=S)/N=C1\N=S(C)(=O)c2ccccc21` (stereo not given) the T/C [8] was 96 % of control, the T/C [9] was 94 % of control and the T/C [10] was 102 % of control.
In the case of `O=C1CC(O)(c2ccc(-c3ccccc3)cc2)CS1` (stereo not given), the T/C (dose: 100.0 mg/kg/injection, schedule: Q04DX003 (ip), vehicle: Klucel (hydroxypropylcellulose) (HPC)) was 101 % of control, the T/C (dose: 200.0 mg/kg/injection, schedule: Q04DX003 (ip), vehicle: Klucel (hydroxypropylcellulose) (HPC)) was 99 % of control and the T/C (dose: 400.0 mg/kg/injection, schedule: Q04DX003 (ip), vehicle: Klucel (hydroxypropylcellulose) (HPC)) was 92 % of control.
`CC1=NN(c2ccccc2)C(=O)C1N=Nc1ccccc1S(=O)(=O)O` (stereo not given) was tested, and the T/C [11] was 108 % of control, the T/C [12] was 109 % of control and the T/C [13] was 111 % of control.
With `Cc1ccc(CC(=O)O)cc1C` the T/C [14] was 190 % of control, the T/C [15] was 113 % of control and the T/C (dose: 400.0 mg/kg/injection, schedule: Q04DX003 (ip), vehicle: saline with Tween-80) was 113 % of control.
In the case of `Nc1nc(-c2ccccc2)c(CC(=O)O)c(-c2nc(N)nc(-c3ccccc3)c2CC(=O)O)n1`, the T/C [1] was 100 % of control, the T/C [2] was 100 % of control and the T/C [3] was 86 % of control.
In the case of `O=C1CNC(=O)c2cc(Cl)ccc2N1`, the T/C [8] was 103 % of control, the T/C [9] was 97 % of control and the T/C [10] was 100 % of control.
For `C=C1C(=O)C23CCC4C5(C)CCCC4(C4OCCN4C5)C2CCC1C3` (stereo not given), the T/C (dose: 1.0 mg/kg/injection, schedule: Q01DX009 (ip), vehicle: Klucel (hydroxypropylcellulose) (HPC)) was 104 % of control, the T/C (dose: 2.0 mg/kg/injection, schedule: Q01DX009 (ip), vehicle: Klucel (hydroxypropylcellulose) (HPC)) was 107 % of control and the T/C (dose: 4.0 mg/kg/injection, schedule: Q01DX009 (ip), vehicle: Klucel (hydroxypropylcellulose) (HPC)) was 95 % of control. The T/C (dose: 8.0 mg/kg/injection, schedule: Q01DX009 (ip), vehicle: Klucel (hydroxypropylcellulose) (HPC)) was 95 % of control.
`O=C(NCc1ccccc1)Nc1cccc2c(NC(=O)NCc3ccccc3)cccc12` was tested, and the T/C (dose: 30.0 mg/kg/injection, schedule: Q01DX005 (ip), vehicle: saline with Tween-80) was 91 % of control, the T/C [1] was 86 % of control and 89 % of control and the T/C [2] was 86 % of control.
`COc1c(CCl)c2c(c(OC)c1OC)COC2=O` was tested, and the T/C [5] was 100 % of control, the T/C [6] was 90 % of control and the T/C [7] was 116 % of control.
With `O=C1C(c2ccccc2)SC(=S)N1c1ccccc1` (stereo not given) the T/C [11] was 105 % of control, the T/C [12] was 92 % of control and the T/C [13] was 89 % of control.
In the case of `CCCCP(=O)(CC(=O)O)c1ccccc1` (stereo not given), the T/C [1] was 98 % of control, the T/C [2] was 99 % of control and the T/C [3] was 102 % of control.
With `O=Cc1cccc[n+]1Cc1ccc2c(c1)OCO2` the T/C (dose: 25.0 mg/kg/injection, schedule: Q01DX009 (ip), vehicle: distilled water + Tween-80) was 100 % of control and the T/C (dose: 50.0 mg/kg/injection, schedule: Q01DX009 (ip), vehicle: distilled water + Tween-80) was 100 % of control.
In the case of `CC(C)c1ccc(C2NC(=S)NC(=O)C2C#N)cc1` (stereo not given), the T/C [11] was 101 % of control, the T/C [12] was 100 % of control and the T/C [13] was 98 % of control.
In the case of `COc1ccc(NS(=O)(=O)c2ccc(NC3OC(CO)C(O)C(O)C3NC(C)=O)cc2)nn1` (stereo not given), the T/C (dose: 50.0 mg/kg/injection, schedule: Q01DX005 (ip), vehicle: saline) was 104 % of control, the T/C (dose: 100.0 mg/kg/injection, schedule: Q01DX005 (ip), vehicle: saline) was 100 % of control and the T/C (dose: 200.0 mg/kg/injection, schedule: Q01DX005 (ip), vehicle: saline) was 104 % of control.
For `CNC(=O)Nc1nc2ccc([N+](=O)[O-])cc2[nH]1`, the T/C (dose: 200.0 mg/kg/injection, schedule: Q04DX003 (oral), vehicle: saline with Tween-80) was 110 % of control, the T/C (dose: 400.0 mg/kg/injection, schedule: Q04DX003 (oral), vehicle: saline with Tween-80) was 112 % of control and the T/C (dose: 800.0 mg/kg/injection, schedule: Q04DX003 (oral), vehicle: saline with Tween-80) was 116 % of control and 121 % of control.
In the case of `Cn1c(C(C)(O)c2cc3c(Cl)nccc3n2C)cc2c(Cl)nccc21`, the T/C (dose: 50.0 mg/kg/injection, schedule: Q01DX005 (ip), vehicle: Klucel (hydroxypropylcellulose) (HPC)) was 103 % of control, the T/C (dose: 100.0 mg/kg/injection, schedule: Q01DX005 (ip), vehicle: Klucel (hydroxypropylcellulose) (HPC)) was 105 % of control and the T/C (dose: 200.0 mg/kg/injection, schedule: Q01DX005 (ip), vehicle: Klucel (hydroxypropylcellulose) (HPC)) was 106 % of control.
For `CC1=C/C(=N\NS(=O)(=O)c2ccc([N+](=O)[O-])cc2)CC(C)(C)C1`, the T/C [9] was 87 % of control, the T/C [10] was 98 % of control and the T/C (dose: 400.0 mg/kg/injection, schedule: Q01DX009 (ip), vehicle: Klucel (hydroxypropylcellulose) (HPC)) was 100 % of control.
`CC(=O)C1C(=O)OC(C)=C(C(=O)O)C1=O` (stereo not given) was tested, and the T/C (dose: 50.0 mg/kg/injection, schedule: Q04DX003 (ip), vehicle: saline with Tween-80) was 109 % of control, the T/C [14] was 109 % of control and the T/C [15] was 100 % of control.
In the case of `COc1cc(C=Nc2cccc3c2NCCC3)cc(OC)c1OC`, the T/C [16] was 105 % of control, the T/C [17] was 98 % of control and the T/C (dose: 400.0 mg/kg/injection, schedule: Q01DX001 (ip), vehicle: saline with Tween-80) was 98 % of control.
In the case of `CCB1OC2C(COC(C)=O)OC(OC(C)=O)C2O1` (stereo not given), the T/C (dose: 50.0 mg/kg/injection, schedule: Q01DX005 (ip), vehicle: saline with Tween-80) was 101 % of control, the T/C (dose: 100.0 mg/kg/injection, schedule: Q01DX005 (ip), vehicle: saline with Tween-80) was 110 % of control and the T/C (dose: 200.0 mg/kg/injection, schedule: Q01DX005 (ip), vehicle: saline with Tween-80) was 113 % of control.
`N#Cc1nc(CC(=O)c2ccccn2)c(CC(=O)c2ccccn2)nc1C#N` was tested, and the T/C [1] was 111 % of control and the T/C [2] was 93 % of control.
In the case of `CCCCCCC(CCC1CCCCC1)C(=O)O` (stereo not given), the T/C (dose: 50.0 mg/kg/injection, schedule: Q01DX001 (ip), vehicle: saline with Tween-80) was 109 % of control, the T/C [16] was 109 % of control and the T/C [17] was 100 % of control.
In the case of `CCCN1C(=O)Cc2ccccc21`, the T/C (dose: 100.0 mg/kg/injection, schedule: Q01DX001 (ip), vehicle: Klucel (hydroxypropylcellulose) (HPC)) was 95 % of control, the T/C (dose: 200.0 mg/kg/injection, schedule: Q01DX001 (ip), vehicle: Klucel (hydroxypropylcellulose) (HPC)) was 97 % of control and the T/C (dose: 400.0 mg/kg/injection, schedule: Q01DX001 (ip), vehicle: Klucel (hydroxypropylcellulose) (HPC)) was 100 % of control.
In the case of `C[Si](C)(C)/N=C/O[Si](C)(C)C`, the T/C (dose: 60.0 mg/kg/injection, schedule: Q01DX005 (ip), vehicle: saline) was 100 % of control, the T/C (dose: 120.0 mg/kg/injection, schedule: Q01DX005 (ip), vehicle: saline) was 101 % of control and the T/C (dose: 240.0 mg/kg/injection, schedule: Q01DX005 (ip), vehicle: saline) was 108 % of control.
For `Clc1ccccc1N1CCN(CCCN2CCN(c3ccccc3Cl)CC2)CC1`, the T/C [4] was 97 % of control, the T/C [5] was 94 % of control and the T/C [6] was 100 % of control.
For `CCCOc1ccc(-c2nc(-c3ccc([N+](=O)[O-])cc3)cs2)cc1`, the T/C [8] was 113 % of control, the T/C [9] was 104 % of control and the T/C [10] was 104 % of control.
In the case of `CC(=O)Oc1ccc2c(c1)C(=O)CCCCCCC(=O)O2`, the T/C (dose: 100.0 mg/kg/injection, schedule: Q01DX001 (ip), vehicle: saline) was 101 % of control, the T/C (dose: 200.0 mg/kg/injection, schedule: Q01DX001 (ip), vehicle: saline) was 95 % of control and the T/C (dose: 400.0 mg/kg/injection, schedule: Q01DX001 (ip), vehicle: saline) was 105 % of control.
